Measured values: patent US20250017874A1, “PHARMACEUTICAL COMPOSITIONS FOR USE IN REDUCING HYPERPIGMENTATION” (Caliway Biopharmaceuticals Co., Ltd., priority 2023, published 2025)

System: B16-F10 cells
Experiment: In vitro efficacy comparison: melanin content, α-MSH 0.5 h then test article 30 h (Example 5)
Type: cell-based, mouse
Conditions: for Melanin content (%) Mean: α-MSH 0.5 h then TA 30 h
Description: B16-F10 cells were seeded in a 96-well plate. Except the vehicle group, cells of the other groups were cultured in the presence of α-MSH for 0.5 hours first. The compositions for examination were then added to the culture medium and the cells were further cultured for 30 hours. The rest of the experimental conditions and procedures were similar to those described in Example 3. Afterwards, the cells were collected to evaluate the effect of 4-[(E)-2-(3,5-dihydroxyphenyl)ethenyl]benzene-1,3-diol compositions (IM01 Group) and Arbutin and 5-[(E)-2-(4-hydroxyphenyl)ethenyl]benzene-1,3-diol (IM00 Group) compositions on reducing melanin levels. The experimental design is summarized in Table 18 and results shown in both Table 18 and FIG. 5.

Oc1cc(O)cc(/C=C/c2ccc(O)cc2O)c1 [IM01, 4-[(E)-2-(3,5-dihydroxyphenyl)ethenyl]benzene-1,3-diol]
Melanin content (%) Mean (TA 89.19 μM (IM01-20)): 67.4%
Melanin content (%) Mean (TA 178.38 μM (IM01-40)): 43.5%
In vitro effect in reducing melanin relative to 5-[(E)-2-(4-hydroxyphenyl)ethenyl]benzene-1,3-diol and arbutin (Table 18 concentrations): better in vitro effects in reducing melanin
